Measurements: patent US20070049564A1 (Wyeth, priority 2005, published 2007)
Converted amounts (≈) assume the structure as drawn. Like-named read-outs stand apart in the source and are kept apart here.

What was measured:
[1] = tested on: E. coli GC 2271; experiment: MIC, broth microdilution; details: Escherichia coli
[2] = tested on: E. faecalis GC 2242; experiment: MIC, broth microdilution; details: Enterococcus faecalis
[3] = tested on: E. coli GC 6465; experiment: MIC, broth microdilution; details: Escherichia coli
[4] = tested on: Staph.; experiment: Range of MIC for Staph. strains, including MRSA; details: Staphylococcus aureus
[5] = tested on: E. coli GC 2236; experiment: MIC, broth microdilution; details: Escherichia coli
[6] = tested on: E. coli GC 1073; experiment: MIC, broth microdilution; details: Escherichia coli
[7] = tested on: E. coli; experiment: Range of MIC for E. coli strains; details: Escherichia coli
[8] = tested on: S. aureus GC 6469; experiment: MIC, broth microdilution; details: Staphylococcus aureus
[9] = tested on: P. aeruginosa GC 2214; experiment: MIC, broth microdilution; details: Pseudomonas aeruginosa
Experimental: (§1) Antimicrobial susceptibility testing. The in vitro activities of the antibiotics are determined by the broth microdilution method as recommended by the National Committee for Clinical Laboratory Standards (NCCLS) (1). Mueller-Hinton II broth (MHBII)(BBL Cockeysville, Md.) is the medium employed in the testing procedures. Microtiter plates containing serial dilutions of each antimicrobial agent are inoculated with each organism to yield the appropriate density (10^5 CFU/ml) in a 100 μl final volume. The plates are incubated for 18-22 hours at 35° C. in ambient air.
Representative compounds were first incubated in mouse serum for an hour prior to the in vitro testing against a panel of selected gram-positive and gram-negative bacteria strains. All compounds were also pre-incubated in water for an hour prior to testing as control.

[10] = tested on: E. coli GC 4559; experiment: MIC, broth microdilution; details: Escherichia coli
[11] = tested on: S. aureus GC 4536; experiment: MIC, broth microdilution; details: Staphylococcus aureus
Experimental: as §1
Representative compounds were first incubated in mouse serum for an hour prior to the in vitro testing against a panel of selected gram-positive and gram-negative bacteria strains. All compounds were also pre-incubated in water for an hour prior to testing as control. Representative compounds of Formula I were incubated in human serum prior to MIC determination.

[12] = tested on: S. agalactiae GC 4564; experiment: MIC, broth microdilution; details: Streptococcus agalactiae
[13] = tested on: E. faecalis GC 2265; experiment: MIC, broth microdilution; details: Enterococcus faecalis
[14] = tested on: E. coli GC 2235; experiment: MIC, broth microdilution; details: Escherichia coli
[15] = tested on: E. faecalis GC 4555; experiment: MIC, broth microdilution; details: Enterococcus faecalis
[16] = tested on: E. coli GC 2203; experiment: MIC, broth microdilution; details: Escherichia coli
[17] = tested on: S. aureus GC 6467; experiment: MIC, broth microdilution; details: Staphylococcus aureus
[18] = tested on: E. coli GC 2270; experiment: MIC, broth microdilution; details: Escherichia coli
[19] = tested on: E. coli GC 2233; experiment: MIC, broth microdilution; details: Escherichia coli
[20] = tested on: E. coli GC 4560; experiment: MIC, broth microdilution; details: Escherichia coli

CC(C)C(=O)OCOC(=O)N(CC(=O)Nc1cc(N(C)C)c2c(c1O)C(=O)C1=C(O)[C@]3(O)C(=O)C(C(N)=O)=C(O)[C@@H](N(C)C)[C@@H]3C[C@@H]1C2)C(C)(C)C [Example 45, ({[(2-{[(5aR,6aS,7S,10aS)-9-(aminocarbonyl)-4,7-bis(dimethylamino)-1,8,10a,11-tetrahydroxy-10,12-dioxo-5,5a,6,6a,7,10,10a,12-octahydrotetracen-2-yl]amino}-2-oxoethyl)(tert-butyl)amino]carbonyl}oxy)methyl 2-methylpropanoate]
MIC ([1]; GC2271, read-out: MINIMAL INHIBITORY CONCENTRATION MIC, pre-incubated in Human Serum): 4 mg/L (≈ 5.48 µM)
MIC ([1]; GC2271, read-out: MINIMAL INHIBITORY CONCENTRATION MIC, pre-incubated in Mouse Serum): 0.5 mg/L (≈ 0.685 µM)
MIC ([1]; GC2271, read-out: MINIMAL INHIBITORY CONCENTRATION MIC, pre-incubated in Water): 16 mg/L (≈ 21.9 µM)
MIC ([2]; GC2242, read-out: MINIMAL INHIBITORY CONCENTRATION MIC, pre-incubated in Human Serum): 1 mg/L (≈ 1.37 µM)
MIC ([2]; GC2242, read-out: MINIMAL INHIBITORY CONCENTRATION MIC, pre-incubated in Mouse Serum): 1 mg/L (≈ 1.37 µM)
MIC ([2]; GC2242, read-out: MINIMAL INHIBITORY CONCENTRATION MIC, pre-incubated in Water): 2 mg/L (≈ 2.74 µM)
MIC ([3]; GC6465, read-out: MINIMAL INHIBITORY CONCENTRATION MIC, pre-incubated in Human Serum): 16 mg/L (≈ 21.9 µM)
MIC ([3]; GC6465, read-out: MINIMAL INHIBITORY CONCENTRATION MIC, pre-incubated in Mouse Serum): 2 mg/L (≈ 2.74 µM)
MIC ([3]; GC6465, read-out: MINIMAL INHIBITORY CONCENTRATION MIC, pre-incubated in Water): > 64 mg/L
MIC ([4]; MRSA, read-out: Range of MIC, Staph (Mouse Serum)): 0.25 to 1 mg/L (≈ 0.343 to 1.37 µM)
MIC ([4]; MRSA, read-out: Range of MIC, Staph (Water)): 0.5 to 2 mg/L (≈ 0.685 to 2.74 µM)
MIC ([4]; read-out: Minimum inhibitory concentration (MIC), Staph (Human Serum)): 0.12 to 1 mg/L (≈ 0.164 to 1.37 µM)
MIC ([4]; read-out: Minimum inhibitory concentration (MIC), Staph (Water)): 0.5 to 2 mg/L (≈ 0.685 to 2.74 µM)
MIC ([5]; GC2236, read-out: MINIMAL INHIBITORY CONCENTRATION MIC, pre-incubated in Human Serum): 4 mg/L (≈ 5.48 µM)
MIC ([5]; GC2236, read-out: MINIMAL INHIBITORY CONCENTRATION MIC, pre-incubated in Mouse Serum): 1 mg/L (≈ 1.37 µM)
MIC ([5]; GC2236, read-out: MINIMAL INHIBITORY CONCENTRATION MIC, pre-incubated in Water): 16 mg/L (≈ 21.9 µM)
MIC ([6]; GC1073, read-out: MINIMAL INHIBITORY CONCENTRATION MIC, pre-incubated in Human Serum): 8 mg/L (≈ 11 µM)
MIC ([6]; GC1073, read-out: MINIMAL INHIBITORY CONCENTRATION MIC, pre-incubated in Mouse Serum): 1 mg/L (≈ 1.37 µM)
MIC ([6]; GC1073, read-out: MINIMAL INHIBITORY CONCENTRATION MIC, pre-incubated in Water): 64 mg/L (≈ 87.7 µM)
MIC ([7]; 20 h, read-out: Range of MIC, E. coli (Mouse Serum)): 0.5 to 2 mg/L (≈ 0.685 to 2.74 µM)
MIC ([7]; read-out: Minimum inhibitory concentration (MIC), E. coli (Human Serum)): 4 to 16 mg/L (≈ 5.48 to 21.9 µM)
MIC ([8]; GC6469, read-out: MINIMAL INHIBITORY CONCENTRATION MIC, pre-incubated in Human Serum): 0.5 mg/L (≈ 0.685 µM)
MIC ([8]; GC6469, read-out: MINIMAL INHIBITORY CONCENTRATION MIC, pre-incubated in Mouse Serum): 1 mg/L (≈ 1.37 µM)
MIC ([8]; GC6469, read-out: MINIMAL INHIBITORY CONCENTRATION MIC, pre-incubated in Water): 1 mg/L (≈ 1.37 µM)
MIC ([9]; GC2214, read-out: MINIMAL INHIBITORY CONCENTRATION MIC, pre-incubated in Human Serum): > 64 mg/L
MIC ([9]; GC2214, read-out: MINIMAL INHIBITORY CONCENTRATION MIC, pre-incubated in Mouse Serum): 16 mg/L (≈ 21.9 µM)
MIC ([9]; GC2214, read-out: MINIMAL INHIBITORY CONCENTRATION MIC, pre-incubated in Water): > 64 mg/L
MIC ([10]; GC4559, read-out: MINIMAL INHIBITORY CONCENTRATION MIC, pre-incubated in Human Serum): 8 mg/L (≈ 11 µM)
MIC ([10]; GC4559, read-out: MINIMAL INHIBITORY CONCENTRATION MIC, pre-incubated in Mouse Serum): 1 mg/L (≈ 1.37 µM)
MIC ([10]; GC4559, read-out: MINIMAL INHIBITORY CONCENTRATION MIC, pre-incubated in Water): 64 mg/L (≈ 87.7 µM)
MIC ([11]; GC4536, read-out: MINIMAL INHIBITORY CONCENTRATION MIC, pre-incubated in Human Serum): 0.5 mg/L (≈ 0.685 µM)
MIC ([11]; GC4536, read-out: MINIMAL INHIBITORY CONCENTRATION MIC, pre-incubated in Mouse Serum): 0.5 mg/L (≈ 0.685 µM)
MIC ([11]; GC4536, read-out: MINIMAL INHIBITORY CONCENTRATION MIC, pre-incubated in Water): 1 mg/L (≈ 1.37 µM)
MIC ([12]; GC4564, read-out: MINIMAL INHIBITORY CONCENTRATION MIC, pre-incubated in Human Serum): 0.5 mg/L (≈ 0.685 µM)
MIC ([12]; GC4564, read-out: MINIMAL INHIBITORY CONCENTRATION MIC, pre-incubated in Mouse Serum): 0.25 mg/L (≈ 0.343 µM)
MIC ([12]; GC4564, read-out: MINIMAL INHIBITORY CONCENTRATION MIC, pre-incubated in Water): 0.5 mg/L (≈ 0.685 µM)
MIC ([13]; GC2265, read-out: MINIMAL INHIBITORY CONCENTRATION MIC, pre-incubated in Human Serum): 1 mg/L (≈ 1.37 µM)
MIC ([13]; GC2265, read-out: MINIMAL INHIBITORY CONCENTRATION MIC, pre-incubated in Mouse Serum): 0.5 mg/L (≈ 0.685 µM)
MIC ([13]; GC2265, read-out: MINIMAL INHIBITORY CONCENTRATION MIC, pre-incubated in Water): 4 mg/L (≈ 5.48 µM)
MIC ([14]; GC2235, read-out: MINIMAL INHIBITORY CONCENTRATION MIC, pre-incubated in Human Serum): 4 mg/L (≈ 5.48 µM)
MIC ([14]; GC2235, read-out: MINIMAL INHIBITORY CONCENTRATION MIC, pre-incubated in Mouse Serum): 0.5 mg/L (≈ 0.685 µM)
MIC ([14]; GC2235, read-out: MINIMAL INHIBITORY CONCENTRATION MIC, pre-incubated in Water): 16 mg/L (≈ 21.9 µM)
MIC ([15]; GC4555, read-out: MINIMAL INHIBITORY CONCENTRATION MIC, pre-incubated in Human Serum): 2 mg/L (≈ 2.74 µM)
MIC ([15]; GC4555, read-out: MINIMAL INHIBITORY CONCENTRATION MIC, pre-incubated in Mouse Serum): 1 mg/L (≈ 1.37 µM)
MIC ([15]; GC4555, read-out: MINIMAL INHIBITORY CONCENTRATION MIC, pre-incubated in Water): 2 mg/L (≈ 2.74 µM)
MIC ([16]; GC2203, read-out: MINIMAL INHIBITORY CONCENTRATION MIC, pre-incubated in Human Serum): 4 mg/L (≈ 5.48 µM)
MIC ([16]; GC2203, read-out: MINIMAL INHIBITORY CONCENTRATION MIC, pre-incubated in Mouse Serum): 0.5 mg/L (≈ 0.685 µM)
MIC ([16]; GC2203, read-out: MINIMAL INHIBITORY CONCENTRATION MIC, pre-incubated in Water): 32 mg/L (≈ 43.8 µM)
MIC ([17]; GC6467, read-out: MINIMAL INHIBITORY CONCENTRATION MIC, pre-incubated in Human Serum): 1 mg/L (≈ 1.37 µM)
MIC ([17]; GC6467, read-out: MINIMAL INHIBITORY CONCENTRATION MIC, pre-incubated in Mouse Serum): 1 mg/L (≈ 1.37 µM)
MIC ([17]; GC6467, read-out: MINIMAL INHIBITORY CONCENTRATION MIC, pre-incubated in Water): 2 mg/L (≈ 2.74 µM)
MIC ([18]; GC2270, read-out: MINIMAL INHIBITORY CONCENTRATION MIC, pre-incubated in Human Serum): 4 mg/L (≈ 5.48 µM)
MIC ([18]; GC2270, read-out: MINIMAL INHIBITORY CONCENTRATION MIC, pre-incubated in Mouse Serum): 0.5 mg/L (≈ 0.685 µM)
MIC ([18]; GC2270, read-out: MINIMAL INHIBITORY CONCENTRATION MIC, pre-incubated in Water): 32 mg/L (≈ 43.8 µM)
MIC ([19]; GC2233, read-out: MINIMAL INHIBITORY CONCENTRATION MIC, pre-incubated in Human Serum): 4 mg/L (≈ 5.48 µM)
MIC ([19]; GC2233, read-out: MINIMAL INHIBITORY CONCENTRATION MIC, pre-incubated in Mouse Serum): 1 mg/L (≈ 1.37 µM)
MIC ([19]; GC2233, read-out: MINIMAL INHIBITORY CONCENTRATION MIC, pre-incubated in Water): 16 mg/L (≈ 21.9 µM)
MIC ([20]; GC4560, read-out: MINIMAL INHIBITORY CONCENTRATION MIC, pre-incubated in Human Serum): 0.5 mg/L (≈ 0.685 µM)
MIC ([20]; GC4560, read-out: MINIMAL INHIBITORY CONCENTRATION MIC, pre-incubated in Mouse Serum): 0.25 mg/L (≈ 0.343 µM)
MIC ([20]; GC4560, read-out: MINIMAL INHIBITORY CONCENTRATION MIC, pre-incubated in Water): 2 mg/L (≈ 2.74 µM)
